Laboratory results reported in patent US7973128B2, “Immunogenic polypeptide composed of tumor antigen-derived optimized cryptic peptides, and uses thereof” (Vaxon Biotech, priority 2005, dated 2011).

What was measured:
[1] = tested on: HLA-A*0201 transgenic HHD mice; test: Tetramer-positive CD8 T cells in draining lymph nodes of vaccinated HHD mice; assay type: in vivo, mouse; details: for Responding mice (response to at least one peptide) / Frequency of strong responses (% of tetramer-positive CD8 cells at least twice the cutoff value; ++): HHD mice vaccinated with polypeptide; for Trispecific response: HHD mice, response to all three peptides
Experimental: HHD mice were injected subcutaneously with 100 μg of nonamer/decamer peptides, and with 240 μg of polypeptide emulsified in incomplete Freund's adjuvant (IFA) plus 150 μg of the I-A^b restricted HBVcore128 T-helper epitope. Eleven days later spleen cells (5×10^7 cells in 10 ml) from immunized mice were stimulated in vitro with peptide (10 μM) in RPMI 1640+10% FCS for five days. The CTL lines were established by weekly re-stimulation in vitro with irradiated spleen cells in the presence of diminishing peptide concentrations (1 to 0.1 μM) and 50 U/ml IL-2 (Proleukin, Chiron Corp., Emeryville, Calif.).
For tetramer labeling, cells from inguinal and para-aortic lymph nodes (LN) of immunized mice were stained with 15 μg/ml PE-coupled HLA-A2/TERT988Y, HLA-A2/MAGE-A248V9 and HLA-A2/HER-2/neu402Y tetramers (Proimmune, Oxford, UK) in the presence of an anti-Fc receptor antibody (clone 2.4 G2) in 20 μl of PBS, 2% FCS for 1 h at room temperature. The cells were washed once in PBS, 2% FCS and then stained with anti-CD44-FITC (clone 1M.178), anti-TCRβ-cychrome (clone H57) and anti-CD8α-APC (clone 53.6.7) (BD Biosciences, Le Pont de Claix, France) in 50 μl of PBS, 2% FCS for 30 min at 4° C. The cells were then washed once in PBS, 2% FCS and immediately analyzed in a FACSCalibur® flow cytometer (Becton Dickinson, San Jose, Calif., USA).
The simplest way to stimulate a polyspecific CTL response in vivo would be to inject a mixture of the relevant peptides. Therefore, the inventors examined whether HHD mice vaccinated with an equimolar mixture of peptides HER-2/neu402Y, TERT988Y and MAGE-A248V9 developed a polyspecific response in vivo. The immune response was evaluated by measuring the frequency of peptide-specific CD8 T cells in the lymph nodes draining the injection site seven days after vaccination, using specific tetramers. Before use, each tetramer was validated with peptide-specific CTL lines as previously described (Miconnet et al., 2002). A positive response was recorded when the percentage of tetramer-positive CD8 cells was higher than the mean percentage+3 standard deviations of tetramer-positive CD8 cells in six naive mice (0.16% for MAGE-A248V9, 0.13% for HER-2/neu402Y and 0.16% for TERT988Y). Eight mice were vaccinated with the peptide mixture in two independent experiments (Table 2). […] Three mice responded to one peptide and five responded to two peptides. Responses to MAGE-A248V9 were more frequent (6/8 mice) than responses to HER-2/neu402Y (4/8 mice) or TERT988Y (3/8 mice).
HHD mice were vaccinated with each polypeptide, and CD8 T cells specific for the individual peptides were identified in draining lymph nodes by using specific tetramers. All six polypeptide variants were immunogenic in HHD mice (i.e., they generated a response to at least one peptide) but the frequency of responding mice varied from one variant to the other. The most immunogenic variants were Poly-1, Poly-3 and Poly-6, with 100%, 87% and 83% of responding mice, respectively (Table 6). Poly-2, Poly-4 and Poly-5 induced a response in respectively 57%, 62% and 62% of vaccinated mice. The frequency of strong responses (% of tetramer-positive CD8 cells at least twice the cutoff value; designated ++) was highest with Poly-6 (41% of all responses), Poly-3 (30% of all responses) and Poly-1 (25% of all responses). The responses were directed against MAGE-A248V9 in 74% of responding mice, HER-2/neu402Y in 71% and TERT988Y in 55%.

[2] = tested on: PBMC from healthy HLA-A*0201 donors; test: In vitro stimulation of healthy donor PBMC, intracellular IFNγ labeling of CD8 cells; assay type: cell-based, human; details: for Donors with responses to all three peptides (trispecific): healthy donor PBMC, IFNγ-producing CD8 cells
Experimental: PBMC were collected by leukapheresis from healthy HLA-A*0201 volunteers. Dendritic cells (DC) were produced from adherent cells (2×10^6 cells/ml) cultured for seven days with 500 IU/ml GM-CSF (Leucomax®, Schering-Plough, Kenilworth, N.J.) and 500 IU/ml IL-4 (R&D Systems, Minneapolis, Minn.) in complete medium (RPMI 1640 supplemented with 10% heat-inactivated human AB serum, […] and antibiotics). On day 7, DC were pulsed with 10 μM peptides or polypeptides for 2 h; the maturation agents Poly I:C (Sigma, Oakville, Canada) at 100 ng/ml, and anti-CD40 mAb (clone G28-5, ATCC, Manassas, Va.) at 2 μg/ml were added to the culture and DCs were further incubated at 37° C. overnight or for up to 48 hours. Mature DC were then irradiated (3500 rads). CD8+ cells were purified by positive selection with CD8 MicroBeads (Miltenyi Biotec, Auburn, Calif.) according to the manufacturer's instructions. CD8^+ cells (2×10^5)+CD8^− cells (6×10^4) were stimulated with 2×10^4 peptide-pulsed DC in complete culture medium supplemented with 1000 IU/ml IL-6 and 5 IU/ml IL-12 (R&D Systems, Minneapolis, Minn.) in round-bottomed 96-well plates. From day 7, cultures were restimulated weekly with peptide-loaded DC in the presence of 20 IU/ml IL-2 (Proleukin, Chiron Corp., Emeryville, Calif.) and 10 ng/ml IL-7 (R&D Systems, Minneapolis, Minn.). After the third restimulation, CD8 cells were tested in an IFN-γ release assay.
T cells (10^5) were incubated with 2×10^5 T2 cells loaded with stimulating peptide in the presence of 20 μg/ml Brefeldin-A (Sigma, Oakville, Canada). Six hours later they were washed, stained with r-phycoerythrin-conjugated anti-CD8 antibody (Caltag Laboratories, Burlingame, Calif.) in PBS for 25 min at 4° C., washed again, and fixed with 4% PFA. The cells were then permeabilized with PBS, 0.5% BSA, 0.2% saponin (Sigma, Oakville, Canada), and labeled with an allophycocyanin-conjugated anti-IFNγ mAb (PharMingen, Mississauga, Canada) for 25 min at 4° C. before analysis with a FACSCalibur™ flow cytometer (Becton Dickinson, Mountain View, Calif.).
The inability of the peptide mixture to stimulate a trispecific CD8 T cell response was confirmed in vitro with human cells. […] PBMC activation was evaluated by measuring the percentage of IFNγ-producing CD8 cells by means of intracellular labeling. A positive response was recorded when the percentage of activated PBMC was at least twice that obtained with an irrelevant peptide. […]
In vitro immune responses were assessed by measuring the percentage of CD8 cells producing IFNγ after specific peptide activation. […]

Substance	Responding mice (response to at least one peptide) ([1]; tetramers)	Trispecific response [1]	Frequency of strong responses (% of tetramer-positive CD8 cells at least twice the cutoff value; ++) [1]	Donors with responses to all three peptides (trispecific) [2]	Immunogenicity in HHD mice, in words ([1]; response to at least one peptide)	Mice responding simultaneously to all three peptides (trispecific response), in words ([1]; vaccinated HHD mice, tetramers)	Strength of responses in human donor cells, in words ([2]; against MAGE-A248V9 in donors #D7017 and #D7225, against HER-2/neu402Y in donor #D7744)	Peptides the donor's CD8 cells responded to ([2]; donor #D7225)
YLEEITGYL-YLEYRQVPV-YLQVNSLQTV (SEQ ID No: 6) (YLEEITGYLYLEYRQVPVYLQVNSLQTV; Poly-4) [polypeptide variant, arrangement N-M-T]	62%	37.5 % of vaccinated mice	–	–	–	–	–	–
YLEEITGYL-YLQVNSLQTV-YLEYRQVPV (SEQ ID No: 5) (YLEEITGYLYLQVNSLQTVYLEYRQVPV; Poly-3) [polypeptide variant, arrangement N-T-M]	87%	12.5 % of vaccinated mice	30 % of all responses	–	–	–	–	–
YLEYRQVPV-YLEEITGYL-YLQVNSLQTV (SEQ ID No: 3) (YLEYRQVPVYLEEITGYLYLQVNSLQTV; Poly-1) [polypeptide variant of MAGE-A248V9, HER-2/neu402Y and TERT988Y, arrangement M-N-T]	100%	28.5 % of vaccinated mice	25 % of all responses	25 % of donors	–	–	–	–
YLEYRQVPV-YLQVNSLQTV-YLEEITGYL (SEQ ID No: 4) (YLEYRQVPVYLQVNSLQTVYLEEITGYL; Poly-2) [polypeptide variant, arrangement M-T-N]	57%	–	–	–	very weakly immunogenic	did not induce a trispecific response in any mice	–	–
YLQVNSLQTV-YLEEITGYL-YLEYRQVPV (SEQ ID No: 7) (YLQVNSLQTVYLEEITGYLYLEYRQVPV; Poly-5) [polypeptide variant, arrangement T-N-M]	62%	25 % of vaccinated mice	–	–	–	–	–	–
YLQVNSLQTV-YLEYRQVPV-YLEEITGYL (SEQ ID No: 2) (YLQVNSLQTVYLEYRQVPVYLEEITGYL; Poly-6) [polypeptide variant, arrangement T-M-N]	83%	67 % of vaccinated mice	41 % of all responses	80 % of donors	–	–	strongest responses	all three peptides
